Experimental data published in patent US12419307B2, “Mixtures comprising indazole pesticides” (FMC Corporation, priority 2019, dated 2025).
Where two headings read alike, the source gives them in different places.

Legend:
[1] = system: silverleaf whitefly (Bemisia argentifolii Bellows and Perring); experiment: Test A: silverleaf whitefly control on cotton or soybean plants, spray, insect mortality after 13 days; type: in vivo; details: Bemisia argentifolii, applied alone, read-out: % Mortality (obs)
Description: (§1) The pest control protection afforded by the mixtures or compositions is not limited, however, to these species. The analysis of enhanced activity between the mixtures or compositions was determined using Colby's equation. The average % mortality data for the test compounds alone were inserted into the Colby's equation. If the observed (obs) average % mortality was higher than “p”, the expected (exp) % mortality, the mixture or composition had enhanced effects. If the observed average % mortality was equal to or lower than the expected mortality, the mixture or composition either had no enhanced effect. For bioassays where insect feeding damage was evaluated, enhanced activity is identified when the observed plant damage is less than the expected plant damage rating; ratings ranged between 0 (no damage) and 10 (dead plant) and each value was converted to a % plant protection. 100−(Obs Plant Damage*10)
For evaluating control of silverleaf whitefly (Bemisia argentifolii Bellows and Perring) through contact and/or systemic means, each test unit consisted of a small open container with a 12- to 14-day-old cotton plant or 5-7 day old soybean plant inside. This was pre-infested by placing test units into cages containing adult whiteflies so that oviposition on the cotton leaves could occur. The adults were removed from the plants with an air-blast nozzle, and the test units were capped. The test units were then stored 2 to 3 days before spraying.
Test compounds were formulated using a solution containing 10% acetone, 90% water and 300 ppm Activator 90@ Spreader Lo-Foam Formula non-ionic surfactant containing alkylarylpolyoxyethylene, free fatty acids, glycols and 2-propanol (Loveland Industries, Inc.) to provide the desired concentration in ppm. Formulated test solutions were then applied in 1 mL volumes through a SUJ2 atomizer nozzle with ⅛ JJ custom body (Spraying Systems Co.) positioned 1.27 cm (0.5 inches) above the top of each test unit.
The results for all experimental compositions in this test were replicated three times. After spraying of the formulated test composition, each test unit was allowed to dry for 1 hour and the cap removed. The test units were held for 13 days in a growth chamber at 28° C. and 50-70% relative humidity.

[2] = system: Western Flower Thrips (Frankliniella occidentalis Pergande); experiment: Test B: Western Flower Thrips control on bean plants, plant damage rating converted to % plant protection after 7 days; type: in vivo; details: for pest or weed control at 3.18 ppm / pest or weed control at 9.75 ppm / pest or weed control at 2.93 ppm / pest or weed control at 16.1 ppm / pest or weed control at 1.5 ppm / pest or weed control at 4.5 ppm: Frankliniella occidentalis, 168 h, read-out: Plant Protection (obs); for Plant Damage (obs): Table 3a; for Plant Damage (obs) / Plant Protection (obs): applied alone
Description: as §1
Thus, a plant given a plant damage rating of 3 out of 10 is equivalent to 70% plant protection In all of these tests, compounds of Formula I are Compounds 1 (Cpd 1), 2 (Cpd2), and 3 (Cpd3) and compounds of Formula II are compounds 4 (Cpd4) and 5 (Cpd 5).
For evaluating control of the Western Flower Thrips (Frankliniella occidentalis Pergande) through contact and/or systemic means, each test unit consisted of a small open container with a 5- to 7-day-old bean (var. Soleil) plant inside.
Test solutions were formulated and sprayed with 3 replications as described for Test A. After spraying, the test units were allowed to dry for 1 hour, 22 to 27 adult thrips were added to each unit and then a black, screened cap was placed on top. The test units were held for 7 days at 25° C. and 45-55% relative humidity. To evaluate the level of plant protection provided by each treatment, each test unit was then visually assessed for plant damage inflicted by insect feeding and rated 0-10, where 0=undamaged and 10=plant is dead; the results are listed in Tables 3a-g.

Structure (SMILES)	mortality at 50 ppm ([1]; 2 h, Table 2h) [%]	mortality at 250 ppm ([1]; 2 h, Table 2h) [%]	mortality at 50 ppm ([1]; 48 h, Table 2d) [%]	mortality at 250 ppm ([1]; 48 h, Table 2d) [%]	mortality at 50 ppm ([1]; Table 2a) [%]	mortality at 250 ppm ([1]; Table 2a) [%]	mortality at 50 ppm ([1]; Table 2b) [%]	mortality at 250 ppm ([1]; Table 2b) [%]	mortality at 50 ppm ([1]; Table 2c) [%]	mortality at 250 ppm ([1]; Table 2c) [%]	mortality at 50 ppm ([1]; Table 2e) [%]	mortality at 250 ppm ([1]; Table 2e) [%]	mortality at 50 ppm ([1]; Table 2f) [%]	mortality at 250 ppm ([1]; Table 2f) [%]	mortality at 50 ppm ([1]; Table 2g) [%]	mortality at 250 ppm ([1]; Table 2g) [%]	other results
CSCC(C)(C)NC(=O)c1ccc(F)c2nn(-c3cccnc3)cc12 [Cpd 1, N-[1,1-dimethyl-2-(methylthio)ethyl]-7-fluoro-2-(3-pyridinyl)-2H-indazole-4-carboxamide]	2.4	7.6	0	1.3	0	18.8	80	0	0	3.1	0	2.2	9.3	0	2.6	2.1	pest or weed control at 3.18 ppm ([2]; Table 3e, 3.18 ppm): 76.7%; pest or weed control at 9.75 ppm ([2]; Table 3e, 9.75 ppm): 66.7%; pest or weed control at 3.18 ppm ([2]; Table 3f, 3.18 ppm): 33.3%; pest or weed control at 9.75 ppm ([2]; Table 3f, 9.75 ppm): 80%; pest or weed control at 3.18 ppm ([2]; Table 3g, 3.18 ppm): 10%; pest or weed control at 9.75 ppm ([2]; Table 3g, 9.75 ppm): 76.7%; pest or weed control at 3.18 ppm ([2]; Table 3d, 3.18 ppm): 63.3%; pest or weed control at 9.75 ppm ([2]; Table 3d, 9.75 ppm): 90%; Plant Damage (obs) ([2]; 3.18 ppm): 33.3%; Plant Damage (obs) ([2]; 9.75 ppm): 73.3%; Plant Protection (obs) ([2]; Table 3b, 3.18 ppm): 73.3%; Plant Protection (obs) ([2]; Table 3b, 9.75 ppm): 76.7%; Plant Protection (obs) ([2]; Table 3c, 3.18 ppm): 63.3%; Plant Protection (obs) ([2]; Table 3c, 9.75 ppm): 83.3%
CC(C)(CS(C)(=O)=O)NC(=O)c1ccc(F)c2nn(-c3cccnc3)cc12 [Cpd 3, N-[1,1-dimethyl-2-(methylsulfonyl)ethyl]-7-fluoro-2-(3-pyridinyl)-2H-indazole-4-carboxamide]	0	0	1.2	1.1	25	1.6	0	0	16.1	26.7	1.3	1.2	21.2	25.3	18	27.7	pest or weed control at 2.93 ppm ([2]; Table 3e, 2.93 ppm): 83.3%; pest or weed control at 16.1 ppm ([2]; Table 3e, 16.1 ppm): 80%; pest or weed control at 2.93 ppm ([2]; Table 3f, 2.93 ppm): 40%; pest or weed control at 16.1 ppm ([2]; Table 3f, 16.1 ppm): 86.7%; pest or weed control at 2.93 ppm ([2]; Table 3g, 2.93 ppm): 43.3%; pest or weed control at 16.1 ppm ([2]; Table 3g, 16.1 ppm): 70%; Plant Damage (obs) ([2]; 2.93 ppm): 13.3%; Plant Damage (obs) ([2]; 16.1 ppm): 83.3%; Plant Protection (obs) ([2]; Table 3b, 2.93 ppm): 40.0%; Plant Protection (obs) ([2]; Table 3b, 16.1 ppm): 76.7%; Plant Protection (obs) ([2]; Table 3c, 2.93 ppm): 33.3%; Plant Protection (obs) ([2]; Table 3c, 16.1 ppm): 80.0%
C[S+]([O-])CC(C)(C)NC(=O)c1ccc(F)c2nn(-c3cccnc3)cc12 (stereo not shown) [Cpd 2, N-[1,1-dimethyl-2-(methylsulfinyl)ethyl]-7-fluoro-2-(3-pyridinyl)-2H-indazole-4-carboxamide]	0	2.9	7.5	28	10.9	74.5	80	53.3	11.8	75.4	17.8	90.2	15.7	90.6	31.1	91.7	pest or weed control at 1.5 ppm ([2]; Table 3e, 1.5 ppm): 66.7%; pest or weed control at 4.5 ppm ([2]; Table 3e, 4.5 ppm): 43.3%; pest or weed control at 1.5 ppm ([2]; Table 3f, 1.5 ppm): 43.3%; pest or weed control at 4.5 ppm ([2]; Table 3f, 4.5 ppm): 73.3%; pest or weed control at 1.5 ppm ([2]; Table 3g, 1.5 ppm): 16.7%; pest or weed control at 4.5 ppm ([2]; Table 3g, 4.5 ppm): 33.3%; pest or weed control at 1.5 ppm ([2]; Table 3d, 1.5 ppm): 36.7%; pest or weed control at 4.5 ppm ([2]; Table 3d, 4.5 ppm): 76.7%; Plant Damage (obs) ([2]; 1.5 ppm): 13.3%; Plant Damage (obs) ([2]; 4.5 ppm): 56.7%; Plant Protection (obs) ([2]; Table 3b, 1.5 ppm): 16.7%; Plant Protection (obs) ([2]; Table 3b, 4.5 ppm): 83.3%; Plant Protection (obs) ([2]; Table 3c, 1.5 ppm): 43.3%; Plant Protection (obs) ([2]; Table 3c, 4.5 ppm): 80.0%
